Patent US7176281B2 (priority 2003, dated 2007)
Where a SMILES comes first, the peptide text is derived from it. Where no end group is shown, it is not given here.

Columns and labels:
sPLA2 [1] = assay: Inhibition of sPLA2 activity at fixed concentrations; format: biochemical
sPLA2 [2] = details: known selective sPLA2 inhibitor; cited from earlier work
[3] = biological target: T1, serum group IIA secretory phospholipase A2 (Homo sapiens, UniProt P14555); details: patients with severe sepsis; cited from earlier work
T1 construct: host or cells: patients' serum
T1 sequence (P14555 21-144): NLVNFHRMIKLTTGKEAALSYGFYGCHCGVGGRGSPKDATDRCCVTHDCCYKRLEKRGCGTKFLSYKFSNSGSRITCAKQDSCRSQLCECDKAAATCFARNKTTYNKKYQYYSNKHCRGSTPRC

[4] = biological target: T2, Group IIA purified human synovial sPLA2 (Homo sapiens, UniProt P14555); assay: In vitro inhibition of purified human synovial sPLA2, 3H-labelled E. coli membranes; format: biochemical; details: 3H-labelled E. coli membranes as substrate
T2 construct: purchased Cayman, USA
T2 sequence (P14555 21-144): T1 sequence (P14555 21-144)

[5] = biological target: T3, 100-kDa human recombinant cytosolic form of PLA2 (cPLA2) (Homo sapiens, UniProt P47712); assay: PLA2 inhibition, E. coli membrane assay, cPLA2; format: biochemical; details: human recombinant cPLA2; read-out: IC50 (mean±SD; n=3)
T3 sequence (P47712 1-749): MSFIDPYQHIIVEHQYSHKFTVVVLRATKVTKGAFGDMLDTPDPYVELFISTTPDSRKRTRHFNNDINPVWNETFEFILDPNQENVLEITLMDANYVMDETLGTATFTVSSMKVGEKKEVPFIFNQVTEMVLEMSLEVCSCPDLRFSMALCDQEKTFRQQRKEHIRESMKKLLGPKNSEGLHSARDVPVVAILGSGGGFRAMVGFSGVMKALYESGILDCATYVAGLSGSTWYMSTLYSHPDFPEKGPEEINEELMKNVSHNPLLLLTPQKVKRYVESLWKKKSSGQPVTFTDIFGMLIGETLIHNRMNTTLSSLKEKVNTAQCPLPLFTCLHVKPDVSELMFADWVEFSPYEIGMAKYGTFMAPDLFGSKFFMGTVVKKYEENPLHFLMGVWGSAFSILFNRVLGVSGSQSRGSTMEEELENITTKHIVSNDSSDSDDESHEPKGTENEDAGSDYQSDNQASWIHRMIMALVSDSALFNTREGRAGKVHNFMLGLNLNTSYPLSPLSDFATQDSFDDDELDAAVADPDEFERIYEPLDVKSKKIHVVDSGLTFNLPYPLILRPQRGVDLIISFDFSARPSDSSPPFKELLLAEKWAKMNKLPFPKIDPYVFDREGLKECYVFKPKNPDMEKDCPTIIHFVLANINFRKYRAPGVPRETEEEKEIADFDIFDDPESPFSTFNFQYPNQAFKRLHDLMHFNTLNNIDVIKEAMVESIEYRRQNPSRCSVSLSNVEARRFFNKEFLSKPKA

[6] = biological target: snake venom PLA2 (crotoxin B) (Crotalus durissus terrificus, UniProt P0CAS2); assay: biochemical
Chain of snake venom PLA2 (crotoxin B) (P0CAS2 whole entry, looked up): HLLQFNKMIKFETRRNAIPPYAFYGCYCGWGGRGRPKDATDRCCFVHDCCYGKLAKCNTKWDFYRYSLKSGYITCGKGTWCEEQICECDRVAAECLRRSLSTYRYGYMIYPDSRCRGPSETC

[7] = biological target: T4, arthritis synovial fluid (human type IIA sPLA2) (Homo sapiens, UniProt P14555); assay: PLA2 inhibition, E. coli membrane assay, arthritis synovial fluid sPLA2; format: biochemical; details: read-out: IC50 (mean±SD; n=3)
T4 construct: arthritis synovial fluid (human type IIA sPLA2); from tissue; host or cells: human arthritis synovial fluid
T4 sequence (P14555 21-144): T1 sequence (P14555 21-144)

human recombinant cPLA2 = biological target: T5, human recombinant cPLA2 (Homo sapiens, UniProt P47712); format: binding
T5 sequence (P47712 1-749): T3 sequence (P47712 1-749)

β-bungarotoxin (Group I) = β-bungarotoxin (Group I) (Bungarus multicinctus, UniProt P00617)
[8] = biological target: bee (Apis mellifera) venom PLA2 (Group III) (Apis mellifera, UniProt P00630)
crotoxin B (Group IIA) = crotoxin B (Group IIA) (Crotalus durissus terrificus, UniProt P0CAS2)

In the case of `CC(=O)O[C@@H]1C[C@@H]2[C@@]3(C)CCCC(C)(C)[C@@H]3CC[C@@]2(C)[C@@H]2CC=C(C=O)[C@H](C=O)[C@@]12C` [12-epi-scalaradial], the “inhibition of sPLA2 activity” value (sPLA2 [1]; 10 μM) is listed as 75%, the “inhibition of sPLA2 activity” value (sPLA2 [1]; 20 μM) is listed as 95% and the IC50 (sPLA2 [2]) is listed as 5.4 µM.
In the case of `CCc1c(C(=O)C(N)=O)c2c(OCC(=O)O)cccc2n1Cc1ccccc1` [LY315920], the “serum group IIA secretory phospholipase A2 enzyme activity” value [3] is listed as “inhibit”.
In the case of `CC[C@H](C)[C@H](NC(=O)[C@H](Cc1ccc(O)cc1)NC(=O)[C@@H](NC(=O)CNC(=O)[C@H](CC(=O)O)NC(=O)[C@H](Cc1c[nH]c2ccccc12)NC(=O)[C@@H](NC(=O)[C@H](Cc1cnc[nH]1)NC(=O)[C@@H](NC(=O)[C@H](CC(=O)O)NC(=O)[C@@H](NC(=O)[C@H](CCCNC(=N)N)NC(=O)CNC(=O)[C@@H](N)CC(C)C)C(C)C)[C@@H](C)CC)C(C)C)C(C)C)C(=O)N[C@@H](CCCNC(=N)N)C(=O)NCC(=O)N[C@@H](CCCNC(=N)N)C(=O)O` [P-NT.II] (H-LGRVDIHVWDGVYIRGR-OH), the IC50 [4] is reported as 5.3 µM, the IC50 [5] is reported as 23.9 ± 2.39 µM and the IC50 ([6]; IC50 (mean±SD; n=3)) is reported as 4.91 ± 2.47 µM. For the same compound, the IC50 ([6]; IC50 ranging) was 3.9 to 4.9 µM and the IC50 [7] was 3.91 ± 1.67 µM.
With “biotinylated-P-NT.II: P-NT.II labeled with biotin, 0.18 mol biotin bound to 1 mol of P-NT.II (LGRVDIHVWDGVYIRGR; also: labeled with biotin, 0.18 mol biotin per mol peptide, site not given here)” the ELISA reaction (human recombinant cPLA2) was “reacted positively”, the “binding to cPLA2 relative to sPLA2s” value (human recombinant cPLA2) was “relatively much weaker” and the ELISA reaction (β-bungarotoxin (Group I)) was “reacted positively”. The ELISA reaction [8] was “reacted positively” and the ELISA reaction (crotoxin B (Group IIA)) was “reacted positively”.
